# Reference: US11400058B2, “Intravenous formulations of coenzyme Q10 (CoQ10) and methods of use thereof” (Berg LLC, priority 2010, dated 2022)
# Marks after values point to notes of the source that are not given here.
# Tests used:
# [1] = 4-week repeat-dose study in dogs with 2-week recovery (Study 20000334); conditions: for Died or Sacrificed Moribund: animals of 5;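 as to all read-outs here: endpoints monitored covered cageside and clinical observations, body weight, gross pathology, clinical pathology, histopathology and organ weights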
# Description: An additional two dogs/sex were included in each group and maintained for a 2-week recovery after treatment. A single test article concentration of 40 mg/mL was provided for use on the study. […] Parameters evaluated included cageside observations, clinical observations, body weight, food consumption, ophthalmoscopy, electrocardiography, clinical pathology, gross pathology, organ weights, and histopathology.
# [2] = rats, oral; cited from earlier work
# [3] = in vivo; conditions: Sprague Dawley, rat, iv
# Description: In the second rat toxicity study, Charles River Study Number 20000328, CoQ10 was administered as short intravenous infusions at the rate of 1.0 mL/min three times a week for four weeks. For the toxicokinetic evaluation, three groups of nine male and nine females received 62.5, 125, and 250 mg/kg CoQ10 IV Formulation (Table 20). On Days 1 and 26, samples were collected from subgroups of three males and three females at 5 and 15 minutes, and at 1, 4, 24 and 48 hr post-dose.
# 4-Week Repeat-Dose Toxicology Study of CoQ10 IV Formulation In Rats: Four groups of young adult Sprague Dawley rats (n=10/sex/group) received the vehicle (PBS containing Poloxamer 188 and DMPC) or the test article at doses of 0, 62.5, 125 and 250 mg/kg by IV injection three times per week (Charles River Laboratories Study Number 20000328; Table 26). An additional 5 rats/sex were included in each group and were maintained after treatment for a 2-week recovery period. […] The vehicle was administered at the same dose volume as the high-dose group. Additionally, three groups of 9 animals/sex served as toxicokinetic (TK) animals and received the test article in the same manner as the main study groups. […] Blood samples for determination of the plasma concentrations of the test article were collected from cohorts of three TK animals per sex per dose group at 5, 15 and 60 minutes and at 4, 24 and 48 hours after dosing on Days 1 and 28 (after the last dose).
# [4] = in vivo; conditions: beagle, dog, iv
# Description: In the second dog toxicity study, Charles River Study Number 20000334, CoQ10 IV Formulation was administered as short intravenous infusions at the rate of 5.0 mL/min three times a week for four weeks.
# An additional two dogs/sex were included in each group and maintained for a 2-week recovery after treatment. A single test article concentration of 40 mg/mL was provided for use on the study. […] Parameters evaluated included cageside observations, clinical observations, body weight, food consumption, ophthalmoscopy, electrocardiography, clinical pathology, gross pathology, organ weights, and histopathology. Blood samples for determination of the plasma concentrations of CoQ10 IV Formulation were collected pre-dose and at 5, 15, 30 and 60 minutes and at 2, 4, 8 and 24 hours post-dose on Days 1 and 26.
# [5] = 31.25 mg/kg F, end of dosing, animals of 3
# [6] = 31.25 mg/kg F, end of recovery, animals of 2
# [7] = 31.25 mg/kg M, end of dosing, animals of 3
# [8] = 31.25 mg/kg M, end of recovery, animals of 2
# [9] = 62.5 mg/kg F, end of dosing, animals of 3
# [10] = 62.5 mg/kg F, end of recovery, animals of 2
# [11] = 62.5 mg/kg M, end of dosing, animals of 3
# [12] = 62.5 mg/kg M, end of recovery, animals of 2
# [13] = 125 mg/kg F, end of dosing, animals of 3
# [14] = 125 mg/kg F, end of recovery, animals of 2
# [15] = 125 mg/kg M, end of dosing, animals of 3
# [16] = 125 mg/kg M, end of recovery, animals of 2
smiles,measurement,setting,value
"COC1=C(OC)C(=O)C(C/C=C(\C)CC/C=C(\C)CC/C=C(\C)CC/C=C(\C)CC/C=C(\C)CC/C=C(\C)CC/C=C(\C)CC/C=C(\C)CC/C=C(\C)CCC=C(C)C)=C(C)C1=O [CoQ10, Coenzyme Q10]",Died or Sacrificed Moribund,[1]; 31.25 mg/kg F,0
same,"Body Weight, percent difference from controls","[1]; 31.25 mg/kg F, end of dosing",+4.7%
same,Reticulocytes,"[1]; 31.25 mg/kg F, end of dosing",3.67e+10 L⁻¹
same,Gross Pathology: Pale Liver,[1]; [5],0
same,Liver Glycogen Accum.,[1]; [5],2
same,"Liver Glycogen Accum., Mild",[1]; [5],0
same,"Liver Glycogen Accum., Minimal",[1]; [5],2
same,"Body Weight, percent difference from controls","[1]; 31.25 mg/kg F, end of recovery",+10.9%
same,Reticulocytes,"[1]; 31.25 mg/kg F, end of recovery",63.4 109/L
same,Gross Pathology: Pale Liver,[1]; [6],0
same,Liver Glycogen Accum.,[1]; [6],0
same,"Liver Glycogen Accum., Mild",[1]; [6],0
same,"Liver Glycogen Accum., Moderate",[1]; [6],0
same,Died or Sacrificed Moribund,[1]; 31.25 mg/kg M,0
same,"Body Weight, percent difference from controls","[1]; 31.25 mg/kg M, end of dosing",+3.3%
same,Reticulocytes,"[1]; 31.25 mg/kg M, end of dosing",4.87e+10 L⁻¹
same,Gross Pathology: Pale Liver,[1]; [7],0
same,Liver Glycogen Accum.,[1]; [7],3
same,"Liver Glycogen Accum., Mild",[1]; [7],1
same,"Liver Glycogen Accum., Minimal",[1]; [7],2
same,"Body Weight, percent difference from controls","[1]; 31.25 mg/kg M, end of recovery",+4.7%
same,Reticulocytes,"[1]; 31.25 mg/kg M, end of recovery",71.6 109/L
same,Gross Pathology: Pale Liver,[1]; [8],0
same,Liver Glycogen Accum.,[1]; [8],0
same,"Liver Glycogen Accum., Mild",[1]; [8],0
same,"Liver Glycogen Accum., Moderate",[1]; [8],0
same,Died or Sacrificed Moribund,[1]; 62.5 mg/kg F,0
same,"Body Weight, percent difference from controls","[1]; 62.5 mg/kg F, end of dosing",+4.2%
same,Reticulocytes,"[1]; 62.5 mg/kg F, end of dosing",5.2e+10 L⁻¹
same,Gross Pathology: Pale Liver,[1]; [9],3
same,Liver Glycogen Accum.,[1]; [9],3
same,"Liver Glycogen Accum., Mild",[1]; [9],1
same,"Liver Glycogen Accum., Minimal",[1]; [9],2
same,"Body Weight, percent difference from controls","[1]; 62.5 mg/kg F, end of recovery",+5.1%
same,Reticulocytes,"[1]; 62.5 mg/kg F, end of recovery",50.8 109/L
same,Gross Pathology: Pale Liver,[1]; [10],1
same,Liver Glycogen Accum.,[1]; [10],1
same,"Liver Glycogen Accum., Mild",[1]; [10],0
same,"Liver Glycogen Accum., Moderate",[1]; [10],1
same,Died or Sacrificed Moribund,[1]; 62.5 mg/kg M,0
same,"Body Weight, percent difference from controls","[1]; 62.5 mg/kg M, end of dosing",0.0%
same,Reticulocytes,"[1]; 62.5 mg/kg M, end of dosing",6.8e+10 L⁻¹
same,Gross Pathology: Pale Liver,[1]; [11],3
same,Liver Glycogen Accum.,[1]; [11],3
same,"Liver Glycogen Accum., Mild",[1]; [11],3
same,"Liver Glycogen Accum., Minimal",[1]; [11],0
same,"Body Weight, percent difference from controls","[1]; 62.5 mg/kg M, end of recovery",−1.4%
same,Reticulocytes,"[1]; 62.5 mg/kg M, end of recovery",85.4 109/L
same,Gross Pathology: Pale Liver,[1]; [12],1
same,Liver Glycogen Accum.,[1]; [12],1
same,"Liver Glycogen Accum., Mild",[1]; [12],1
same,"Liver Glycogen Accum., Moderate",[1]; [12],0
same,Died or Sacrificed Moribund,"[1]; 125 mg/kg F, moribund sacrificed on Day 36 (Week 2 of recovery)",1^c
same,"Body Weight, percent difference from controls","[1]; 125 mg/kg F, end of dosing",−1.0%
same,Reticulocytes,"[1]; 125 mg/kg F, end of dosing",160.69 109/L
same,Gross Pathology: Pale Liver,[1]; [13],3
same,Liver Glycogen Accum.,[1]; [13],3
same,"Liver Glycogen Accum., Mild",[1]; [13],1
same,"Liver Glycogen Accum., Minimal",[1]; [13],2
same,"Body Weight, percent difference from controls","[1]; 125 mg/kg F, end of recovery",−1.0%
same,Reticulocytes,"[1]; 125 mg/kg F, end of recovery",53.6 109/L
same,Gross Pathology: Pale Liver,[1]; [14],2
same,Liver Glycogen Accum.,[1]; [14],2
same,"Liver Glycogen Accum., Mild",[1]; [14],1
same,"Liver Glycogen Accum., Moderate",[1]; [14],1
same,Died or Sacrificed Moribund,[1]; 125 mg/kg M,0
same,"Body Weight, percent difference from controls","[1]; 125 mg/kg M, end of dosing",+1.2%
same,Reticulocytes,"[1]; 125 mg/kg M, end of dosing",190.6 109/L
same,Gross Pathology: Pale Liver,[1]; [15],3
same,Liver Glycogen Accum.,[1]; [15],3
same,"Liver Glycogen Accum., Mild",[1]; [15],3
same,"Liver Glycogen Accum., Minimal",[1]; [15],0
same,"Body Weight, percent difference from controls","[1]; 125 mg/kg M, end of recovery",+7.9%
same,Reticulocytes,"[1]; 125 mg/kg M, end of recovery",131.1 109/L
same,Gross Pathology: Pale Liver,[1]; [16],2
same,Liver Glycogen Accum.,[1]; [16],2
same,"Liver Glycogen Accum., Mild",[1]; [16],1
same,"Liver Glycogen Accum., Moderate",[1]; [16],1
same,orally-administered CoQ10 absorbed,[2],2-3%
same,AUC0-t,"[3]; female, 62.5 mg/kg",2690 µg·h/mL
same,AUC0-t,"[3]; female, 125 mg/kg",5110 µg·h/mL
same,AUC0-t,"[3]; female, 250 mg/kg",15500 µg·h/mL
same,AUC0-t,"[3]; male, 62.5 mg/kg",3000 µg·h/mL
same,AUC0-t,"[3]; male, 125 mg/kg",6870 µg·h/mL
same,AUC0-t,"[3]; male, 250 mg/kg",16600 µg·h/mL
same,AUC0-t,"[4]; female, 31.25 mg/kg",1220 µg·h/mL
same,AUC0-t,"[4]; female, 62.5 mg/kg",2920 µg·h/mL
same,AUC0-t,"[4]; female, 125 mg/kg",12500 µg·h/mL
same,AUC0-t,"[4]; male, 31.25 mg/kg",1130 µg·h/mL
same,AUC0-t,"[4]; male, 62.5 mg/kg",3350 µg·h/mL
same,AUC0-t,"[4]; male, 125 mg/kg",12800 µg·h/mL
